Experiment [1] concerns the target T1, P2X4 (Homo sapiens, UniProt Q99571).
T1 sequence (Q99571 1-388): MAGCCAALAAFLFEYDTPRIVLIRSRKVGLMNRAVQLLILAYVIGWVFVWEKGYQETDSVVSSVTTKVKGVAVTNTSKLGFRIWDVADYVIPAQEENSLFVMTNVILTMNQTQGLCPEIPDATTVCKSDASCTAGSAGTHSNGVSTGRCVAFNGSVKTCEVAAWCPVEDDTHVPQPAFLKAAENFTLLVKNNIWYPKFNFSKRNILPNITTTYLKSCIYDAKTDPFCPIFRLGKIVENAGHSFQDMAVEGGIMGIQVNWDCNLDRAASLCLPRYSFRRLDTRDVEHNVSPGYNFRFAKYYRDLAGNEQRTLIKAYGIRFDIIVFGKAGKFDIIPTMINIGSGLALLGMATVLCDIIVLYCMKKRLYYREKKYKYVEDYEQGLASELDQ
Kind of experiment: Assay B: human P2X4 receptor cell line, mitochondrial photina luminescence (agonist Bz-ATP at EC50). Type of experiment: cell-based. On the set-up: host or cells: HEK 293 (recombinant, constitutively expressing; with mitochondrial photina in Assay B). The settings on record: HEK human P2X4 cell line, photina luminescence, agonist Bz-ATP at EC50, average; for Emax: read-out: human P2X4 Assay B avg Efficacy. The gist of the method:
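Bz-ATP at its EC50 activates human P2X4 stably expressed in a cell line that also carries the calcium-sensitive photoprotein mitochondrial photina (coelenterazine cofactor). Light emitted on calcium influx is measured straight away in a luminometer. Reduced luminescence indicates antagonism.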

Experiment [2] addresses T1, P2X4. As to the kind of experiment: Assay A: human P2X4 receptor cell line, FLIPR calcium assay (Fluo-8, agonist Bz-ATP at EC80). The format is cell-based. On the set-up: host or cells: HEK 293 (recombinant, constitutively expressing; with mitochondrial photina in Assay B). The settings on record: HEK human P2X4 cells, Fluo-8 FLIPR; for IC50: Bz-ATP at EC80, average values; for Emax: percentage of maximal inhibition, read-out: human P2X4 Assay A avg Efficacy. The gist of the method:
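Antagonism read as inhibition of the calcium response to EC80 Bz-ATP, by peak-over-basal Fluo-8 fluorescence over 120 s, normalized to DMSO wells. Human P2X4-HEK cells, dye-loaded 30 min in probenecid-containing HBSS/HEPES pH 7.4, received compound 30 min beforehand at room temperature, 0.5% DMSO final. Triplicates fitted for IC50, maximal inhibition and Hill slope.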

Consider 22 compounds from patent US20180338980A1, “AROMATIC SULFONAMIDE DERIVATIVES” (BAYER PHARMA AKTIENGESELLSCHAFT, priority 2015, published 2018).

As usually defined, the IC50 is the midpoint of a concentration-inhibition curve.

For the compound `COc1cccc(Cl)c1CC(=O)Nc1ccc(Oc2cccc(Cl)c2)c(S(N)(=O)=O)c1` [Example 101, 2-(2-Chloro-6-methoxyphenyl)-N-[4-(3-chlorophenoxy)-3-sulfamoylphenyl]acetamide], on P2X4 [1], the IC50 came to 59 nM and the Emax worked out at 69%. On P2X4 [2], the IC50 was 38 nM and the Emax was found to be 97%.
For `COc1ccc(Cl)c(CC(=O)Nc2ccc(Oc3cccc(Cl)c3)c(S(N)(=O)=O)c2)c1` [Example 102, 2-(2-Chloro-5-methoxyphenyl)-N-[4-(3-chlorophenoxy)-3-sulfamoylphenyl]acetamide] the same measures were 84 nM, 61%, 68 nM and 85%.
With `NS(=O)(=O)c1cc(NC(=O)Cc2cccc(Cl)c2Cl)ccc1Oc1cccc(Cl)c1` [Example 103, N-[4-(3-Chlorophenoxy)-3-sulfamoylphenyl]-2-(2,3-dichlorophenyl)acetamide], on P2X4 [1], the IC50 was 141 nM and the Emax stood at 70%. At P2X4 [2], the IC50 was determined as 208 nM and the Emax was found to be 78%.
The corresponding values for `NS(=O)(=O)c1cc(NC(=O)Cc2cccc(C(F)(F)F)c2Cl)ccc1Oc1cccc(Cl)c1` [Example 107, N-[4-(3-Chlorophenoxy)-3-sulfamoylphenyl]-2-[2-chloro-3-(trifluoromethyl)phenyl]acetamide] are 901 nM, 64%, 201 nM and 86%.
As for `NS(=O)(=O)c1cc(NC(=O)Cc2ccc(Cl)cc2Cl)ccc1Oc1cccc(Cl)c1` [Example 110, N-[4-(3-Chlorophenoxy)-3-sulfamoylphenyl]-2-(2,4-dichlorophenyl)acetamide], at P2X4 [1], the IC50 stood at 159 nM and the Emax was determined as 37%. At P2X4 [2], the concentration for half-maximal inhibition (IC50) turned out to be 254 nM and the Emax was 79%.
The corresponding values for `NS(=O)(=O)c1cc(NC(=O)Cc2ccccc2OC(F)F)ccc1Oc1cccc(Cl)c1` [Example 113, N-[4-(3-Chlorophenoxy)-3-sulfamoylphenyl]-2-[2-(difluoromethoxy)phenyl]acetamide] are 239 nM, 73%, 173 nM and 88%.
As to `NS(=O)(=O)c1cc(NC(=O)Cc2ccc(C(F)(F)F)cc2)ccc1Oc1cccc(Cl)c1` [Example 116, N-[4-(3-Chlorophenoxy)-3-sulfamoylphenyl]-2-[4-(trifluoromethyl)phenyl]acetamide], the Emax at P2X4 [1] stood at 72%; on P2X4 [2], 87%.
As for `NS(=O)(=O)c1cc(NC(=O)Cc2cc(Br)ccc2Cl)ccc1Oc1cccc(Cl)c1` [Example 117, 2-(5-Bromo-2-chlorophenyl)-N-[4-(3-chlorophenoxy)-3-sulfamoylphenyl]acetamide], on P2X4 [1], the IC50 came to 468 nM and the Emax came out at 61%. At P2X4 [2], the IC50 was found to be 43 nM and the Emax is 94%.
As for `Cc1ccc(F)c(CC(=O)Nc2ccc(Oc3cccc(Cl)c3)c(S(N)(=O)=O)c2)c1Cl` [Example 120, 2-(2-Chloro-6-fluoro-3-methylphenyl)-N-[4-(3-chlorophenoxy)-3-sulfamoylphenyl]acetamide], on P2X4 [1], the IC50 is 194 nM and the Emax turned out to be 78%. Also, at P2X4 [2], the half-inhibitory concentration (IC50) was 65 nM and the Emax came to 83%.
For `NS(=O)(=O)c1cc(NC(=O)Cc2c(F)ccc(F)c2Cl)ccc1Oc1cccc(Cl)c1` [Example 122, 2-(2-Chloro-3,6-difluorophenyl)-N-[4-(3-chlorophenoxy)-3-sulfamoylphenyl]acetamide] the same measures were 105 nM, 54%, 26 nM and 83%.
Turning to `Cc1ccc(Cl)c(CC(=O)Nc2ccc(Oc3cccc(Cl)c3)c(S(N)(=O)=O)c2)c1Cl` [Example 128, N-[4-(3-Chlorophenoxy)-3-sulfamoylphenyl]-2-(2,6-dichloro-3-methylphenyl)acetamide], the IC50 is 380 nM on P2X4 [1] and 184 nM at P2X4 [2]. Moreover, the Emax on P2X4 [1] is 60%; at P2X4 [2], 77%.
For `NS(=O)(=O)c1cc(NC(=O)Cc2c(Cl)ccc(C3CC3)c2Cl)ccc1Oc1cccc(Cl)c1` [Example 129, N-[4-(3-Chlorophenoxy)-3-sulfamoylphenyl]-2-(2,6-dichloro-3-cyclopropylphenyl)acetamide] the same measures were 1300 nM, 1170 nM, 69% and 83%.
The corresponding values for `NS(=O)(=O)c1cc(NC(=O)Cc2c(Cl)ccc(C(F)(F)F)c2Cl)ccc1Oc1cccc(Cl)c1` [Example 130, N-[4-(3-Chlorophenoxy)-3-sulfamoylphenyl]-2-[2,6-dichloro-3-(trifluoromethyl)phenyl]acetamide] are 1050 nM, 979 nM, 70% and 91%.
Turning to `NS(=O)(=O)c1cc(NC(=O)Cc2c(Cl)ccc(Br)c2Cl)ccc1Oc1cccc(Cl)c1` [Example 131, 2-(3-bromo-2,6-dichlorophenyl)-N-[4-(3-chlorophenoxy)-3-sulfamoylphenyl]acetamide], on P2X4 [1], the IC50 came out at 2400 nM and the Emax stood at 86%. Also, on P2X4 [2], the IC50 was 284 nM and the Emax was 77%.
The corresponding values for `Cc1ccc(Br)c(Cl)c1CC(=O)Nc1ccc(Oc2cccc(Cl)c2)c(S(N)(=O)=O)c1` [Example 132, 2-(3-Bromo-2-chloro-6-methylphenyl)-N-[4-(3-chlorophenoxy)-3-sulfamoylphenyl]acetamide] are 640 nM, 102%, 541 nM and 72%.
The corresponding values for `Cc1c(Br)ccc(Cl)c1CC(=O)Nc1ccc(Oc2cccc(Cl)c2)c(S(N)(=O)=O)c1` [Example 133, 2-(3-Bromo-6-chloro-2-methylphenyl)-N-[4-(3-chlorophenoxy)-3-sulfamoylphenyl]acetamide] are 4100 nM, 92%, 375 nM and 75%.
For `NS(=O)(=O)c1cc(NC(=O)Cc2cc(OC(F)(F)C(F)F)ccc2Cl)ccc1Oc1cccc(Cl)c1` [Example 134, N-[4-(3-Chlorophenoxy)-3-sulfamoylphenyl]-2-[2-chloro-5-(1,1,2,2-tetrafluoroethoxy)phenyl]acetamide] the same measures were 1350 nM, 77%, 688 nM and 83%.
In the case of `NS(=O)(=O)c1cc(NC(=O)Cc2ccc(C(F)(F)F)cc2Cl)ccc1Oc1cccc(Cl)c1` [Example 135, N-[4-(3-Chlorophenoxy)-3-sulfamoylphenyl]-2-[2-chloro-4-(trifluoromethyl)phenyl]acetamide], the IC50 at P2X4 [1] turned out to be 870 nM; on P2X4 [2], 631 nM. The Emax at P2X4 [1] was 45%; at P2X4 [2], 75%.
Take `CS(=O)(=O)c1cccc(COc2ccc(NC(=O)Cc3ccccc3Cl)cc2S(N)(=O)=O)c1` [Example 136, 2-(2-Chlorophenyl)-N-(4-{[3-(methylsulfonyl)benzyl]oxy}-3-sulfamoylphenyl)acetamide]: at P2X4 [1], the half-maximal inhibitory concentration (IC50) was found to be 102 nM and the Emax turned out to be 83%. Also, on P2X4 [2], the IC50 was found to be 10 nM and the Emax was determined as 90%.
For `COc1cccc(COc2ccc(NC(=O)Cc3ccccc3Cl)cc2S(N)(=O)=O)c1` [Example 140, 2-(2-Chlorophenyl)-N-{4-[(3-methoxybenzyl)oxy]-3-sulfamoylphenyl}acetamide] the same measures were 44 nM, 67%, 8 nM and 103%.
`N#Cc1cccc(COc2ccc(NC(=O)Cc3ccccc3Cl)cc2S(N)(=O)=O)c1` [Example 142, 2-(2-Chlorophenyl)-N-{4-[(3-cyanobenzyl)oxy]-3-sulfamoylphenyl}acetamide]: at P2X4 [1], the IC50 came out at 60 nM and the Emax stood at 70%. In addition, at P2X4 [2], the IC50 was determined as 43 nM and the Emax is 90%.
For `NS(=O)(=O)c1cc(NC(=O)Cc2ccccc2Cl)ccc1OCc1ccc(F)cc1` [Example 143, 2-(2-Chlorophenyl)-N-{4-[(4-fluorobenzyl)oxy]-3-sulfamoylphenyl}acetamide] the same measures were 39 nM, 71%, 9 nM and 72%.
